This test concerns the target T1, WT Af1521 macro domain (Archaeoglobus fulgidus, UniProt O28751).
T1 construct: gene AF_1521; macro domain, His-tagged
T1 sequence (O28751 1-192): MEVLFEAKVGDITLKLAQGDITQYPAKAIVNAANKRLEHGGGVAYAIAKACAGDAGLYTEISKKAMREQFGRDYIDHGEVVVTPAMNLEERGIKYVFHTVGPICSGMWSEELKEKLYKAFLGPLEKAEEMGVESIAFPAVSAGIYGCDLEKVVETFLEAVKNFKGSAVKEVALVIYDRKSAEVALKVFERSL
The experiment in a line: SPR ([…] kinetic fit; steady-state fit gave […]), immobilized protein. In kind it is binding.

Each structure is given as a SMILES string.

By Kd is commonly meant a measure of binding affinity in units of concentration. High values mean a looser complex, low ones a tighter complex.

`Nc1ncnc2c1ncn2[C@@H]1O[C@H](COP(=O)(O)OP(=O)(O)OC[C@H]2O[C@H](O)[C@H](O)[C@@H]2O)[C@@H](O)[C@H]1O` [ADP-ribose] returned a Kd of 2879 ± 9 nM.

These data come from publication PMC7566600, “Engineering Af1521 improves ADP-ribose binding and identification of ADP-ribosylated proteins” (Nature Communications, 2020).
